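The compound was tested at five concentrations on cells cultured in 96-well plates, with a 48-hour exposure period. GI50: concentration for 50% inhibition of growth.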 Active and inactive are the calls of the source. Rule as the data show it: active = GI50 up to about 1.1 µM and inactive = higher.
What was measured:
Experiment in all cases: inhibition of tumour cell growth, NCI panel, 48 h
[1] = system: A549
[2] = system: ACHN
[3] = system: CCRF-CEM
[4] = system: EKVX
[5] = system: HCC 2998
[6] = system: HCT-116
[7] = system: HOP-92
[8] = system: MDA-MB-435
[9] = system: NCI-H226
[10] = system: OVCAR-8
[11] = system: RPMI-8226
[12] = system: SF-295
[13] = system: SK-MEL-5
[14] = system: SNB-19
[15] = system: SNB-75
[16] = system: SR
[17] = system: TK-10
[18] = system: UACC-62
[19] = system: HL-60
[20] = system: IGROV-1

Row | Compound | GI50 [1] | GI50 [2] | GI50 [3] | GI50 [4] | GI50 [5] | GI50 [6] | GI50 [7] | GI50 [8] | GI50 [9] | GI50 [10] | GI50 [11] | GI50 [12] | GI50 [13] | GI50 [14] | GI50 [15] | GI50 [16] | GI50 [17] | GI50 [18] | GI50 [19] | GI50 [20]
1 | Cc1cc2c(O)c(c1)CN(CC(=O)O)Cc1cc(C)cc(c1O)CN(CC(=O)O)Cc1cc(C)cc(c1O)CN(CC(=O)O)C2 | > 100 µM (inactive) | > 100 µM (inactive) | > 100 µM (inactive) | > 100 µM (inactive) | > 100 µM (inactive) | > 100 µM (inactive) | 64.4 µM (inactive) | > 100 µM (inactive) | > 100 µM (inactive) | > 100 µM (inactive) | > 100 µM (inactive) | > 100 µM (inactive) | > 100 µM (inactive) | > 100 µM (inactive) | > 100 µM (inactive) | > 100 µM (inactive) | > 100 µM (inactive) | > 100 µM (inactive) |  | 
2 | NNc1nncn1N | > 100 µM (inactive) | > 100 µM (inactive) | 1.25 µM (inactive) | > 100 µM (inactive) |  | > 100 µM (inactive) | > 100 µM (inactive) | 19.2 µM (inactive) | > 100 µM (inactive) | > 96.6 µM (inactive) | 72.1 µM (inactive) | > 100 µM (inactive) | > 100 µM (inactive) | > 100 µM (inactive) | > 100 µM (inactive) | 39.1 µM (inactive) | > 100 µM (inactive) | > 100 µM (inactive) | 5.71 µM (inactive) | > 100 µM (inactive)
3 | O=C(N/N=C1/C(=O)c2c3ccccc3cc3cccc1c23)c1ccccc1 | 12.2 µM (inactive) | 29.1 µM (inactive) | > 53.1 µM (inactive) | 75.7 µM (inactive) |  | 30.8 µM (inactive) | 51.9 µM (inactive) | 25.9 µM (inactive) | > 43.8 µM (inactive) | 31.1 µM (inactive) | > 80.4 µM (inactive) | 20.5 µM (inactive) | 23.6 µM (inactive) | 35.8 µM (inactive) | 27.2 µM (inactive) | > 58.6 µM (inactive) | 22.1 µM (inactive) | 26.8 µM (inactive) | > 68.9 µM (inactive) | 25.4 µM (inactive)
4 | CC(C)=NNc1cnnc2ccc([N+](=O)[O-])cc12 | > 100 µM (inactive) | 23.9 µM (inactive) | 32.9 µM (inactive) | > 100 µM (inactive) |  | 59.6 µM (inactive) | > 100 µM (inactive) | 67.8 µM (inactive) | > 100 µM (inactive) | > 100 µM (inactive) | 31.6 µM (inactive) | > 100 µM (inactive) | 55.3 µM (inactive) | > 100 µM (inactive) | 58.9 µM (inactive) | 30.3 µM (inactive) |  |  | 16.3 µM (inactive) | 21.4 µM (inactive)
5 | O=[N+]([O-])c1ccc(/C=C(/c2ccc([N+](=O)[O-])o2)S(=O)(=O)c2ccccc2)o1 | 18.7 µM (inactive) | 2.84 µM (inactive) |  | 0.0885 µM (active) |  | 1.71 µM (inactive) | 12 µM (inactive) | 15.2 µM (inactive) | 1.42 µM (inactive) | 4.49 µM (inactive) | 0.128 µM (active) | 18.6 µM (inactive) | 11.9 µM (inactive) | 20.1 µM (inactive) | 19 µM (inactive) | 1.02 µM (active) | 4.1 µM (inactive) | 6.17 µM (inactive) | 2.75 µM (inactive) | 16.6 µM (inactive)
6 | Cc1cc(C2CC(O)C(CO)O2)c(F)cc1F (configuration not stated) | > 100 µM (inactive) | > 100 µM (inactive) | > 100 µM (inactive) | > 100 µM (inactive) | > 100 µM (inactive) | > 100 µM (inactive) | > 100 µM (inactive) | > 100 µM (inactive) | > 100 µM (inactive) | > 100 µM (inactive) |  | > 100 µM (inactive) |  | > 100 µM (inactive) | > 100 µM (inactive) | > 100 µM (inactive) | > 100 µM (inactive) | > 100 µM (inactive) | 91.6 µM (inactive) | > 100 µM (inactive)
7 | N#CC(C#N)=C/C=C(\Sc1c(Cl)c(Cl)nc(Cl)c1Cl)c1ccc(Cl)cc1 | > 100 µM (inactive) | 16.8 µM (inactive) | 4.74 µM (inactive) | 32.4 µM (inactive) |  | 10.2 µM (inactive) | 26.5 µM (inactive) | 5.4 µM (inactive) | 23 µM (inactive) | 5.05 µM (inactive) | 4.1 µM (inactive) | 19 µM (inactive) | 13 µM (inactive) | 20.7 µM (inactive) | 20.1 µM (inactive) | 3.75 µM (inactive) | 21.2 µM (inactive) | 14.3 µM (inactive) | 10.8 µM (inactive) | 18.7 µM (inactive)
8 | NNC(=O)CSc1nc2ccccc2c(=O)n1N | > 100 µM (inactive) | 26.4 µM (inactive) | > 100 µM (inactive) | 53.8 µM (inactive) | > 100 µM (inactive) | 31.6 µM (inactive) | 22.5 µM (inactive) | > 100 µM (inactive) | > 100 µM (inactive) | 31.9 µM (inactive) | > 100 µM (inactive) | 31.4 µM (inactive) | > 100 µM (inactive) | 14.9 µM (inactive) | 13.5 µM (inactive) | > 100 µM (inactive) | 16.3 µM (inactive) | 27.6 µM (inactive) |  | > 100 µM (inactive)
9 | CNC1C(O)C(OC2C(N)CC(N)C(OC3OC(C(C)O)C(O)C(O)C3N)C2O)OCC1(C)O (configuration not stated) | > 100 µM (inactive) | > 100 µM (inactive) | > 100 µM (inactive) | > 100 µM (inactive) | > 100 µM (inactive) | > 100 µM (inactive) |  | > 100 µM (inactive) | > 100 µM (inactive) | > 100 µM (inactive) | > 100 µM (inactive) | > 100 µM (inactive) | > 100 µM (inactive) | > 100 µM (inactive) | > 100 µM (inactive) | > 100 µM (inactive) | > 100 µM (inactive) | > 100 µM (inactive) | > 100 µM (inactive) | > 100 µM (inactive)
10 | Cc1nc(N)c(N2CCN(S(=O)(=O)N(Cc3ccccc3)Cc3ccccc3)CC2)c(O)n1 | 82.6 µM (inactive) | 18.2 µM (inactive) | > 100 µM (inactive) | 58.6 µM (inactive) | 87.3 µM (inactive) | 28.1 µM (inactive) |  | 38.5 µM (inactive) | 30.1 µM (inactive) | 35.2 µM (inactive) | > 100 µM (inactive) | 26.4 µM (inactive) |  | 25 µM (inactive) | 10.9 µM (inactive) | > 100 µM (inactive) | 26.5 µM (inactive) |  | 57.7 µM (inactive) | 
11 | Cc1cc2c(cc1C)[n+]([O-])c(C(F)(F)F)c(C(=O)c1ccccc1)[n+]2[O-] | 1.42 µM (inactive) | 2.39 µM (inactive) | 2.02 µM (inactive) | 0.785 µM (active) |  | 2.24 µM (inactive) | 0.167 µM (active) | 2.69 µM (inactive) |  | 2.93 µM (inactive) | 1.24 µM (inactive) | 2.4 µM (inactive) | 1.73 µM (inactive) | 3.56 µM (inactive) | 3.32 µM (inactive) | 0.527 µM (active) | 3.3 µM (inactive) | 2.22 µM (inactive) | 1.69 µM (inactive) | 1.37 µM (inactive)
12 | Sc1nnc(Cc2ccc(Cl)cc2)[nH]1 | 44.1 µM (inactive) | 45.3 µM (inactive) | 63.1 µM (inactive) | 47.1 µM (inactive) | > 100 µM (inactive) | 51.4 µM (inactive) | 16.2 µM (inactive) | 88.3 µM (inactive) | 65.5 µM (inactive) | 46.6 µM (inactive) |  | 43.7 µM (inactive) | 39.6 µM (inactive) | 71 µM (inactive) | 33.2 µM (inactive) | 58.6 µM (inactive) | 66.2 µM (inactive) | 66.7 µM (inactive) |  | 44.5 µM (inactive)
13 | COC(=O)C([C@H]1CC[C@H](OCc2ccccc2)[C@@]1(O)COCc1ccccc1)C(C)(O)CCc1ccccc1 (some centres not stated) | 6.71 µM (inactive) | 12.5 µM (inactive) | 6.92 µM (inactive) | 8.57 µM (inactive) | 14 µM (inactive) | 10.7 µM (inactive) |  | 14.4 µM (inactive) | 11.8 µM (inactive) | 13.4 µM (inactive) | 9.89 µM (inactive) | 8.41 µM (inactive) | 14.1 µM (inactive) | 26.5 µM (inactive) | 2.07 µM (inactive) | 5.43 µM (inactive) | 17.1 µM (inactive) | 13.2 µM (inactive) |  | 10.9 µM (inactive)
14 | O=C(O)COc1c(Cl)cc(Cl)c(C(c2c(Cl)cc(Cl)c(OCC(=O)O)c2Cl)C(Cl)(Cl)Cl)c1Cl | 30.1 µM (inactive) | 33.7 µM (inactive) |  |  | 12.1 µM (inactive) | 28.2 µM (inactive) | 25.2 µM (inactive) | 23 µM (inactive) | 21.4 µM (inactive) | 43.8 µM (inactive) | 28.3 µM (inactive) | 25 µM (inactive) | 18.5 µM (inactive) | > 100 µM (inactive) | 29.6 µM (inactive) |  | 31.9 µM (inactive) | 18.9 µM (inactive) | 21.7 µM (inactive) | 32.8 µM (inactive)
15 | O=C(NC(Cc1ccccc1)P(=O)(O)c1ccccc1)OCc1ccccc1 (configuration not stated) | > 100 µM (inactive) | > 100 µM (inactive) | > 100 µM (inactive) | > 100 µM (inactive) |  | > 100 µM (inactive) | > 100 µM (inactive) | > 100 µM (inactive) | > 100 µM (inactive) | > 100 µM (inactive) | > 100 µM (inactive) | > 100 µM (inactive) | > 100 µM (inactive) | > 100 µM (inactive) | > 100 µM (inactive) | > 100 µM (inactive) | > 100 µM (inactive) | > 100 µM (inactive) | > 100 µM (inactive) | > 100 µM (inactive)

From ChEMBL document CHEMBL1201862, “PubChem BioAssay data set” (2004)
